Measurements published in patent US11001560B2, “Compound for blocking absorption of heavy metals by plants and a composition containing the same” (SICHUAN HUI TAI AGRICULTURAL TECHNOLOGY CO. LTD., priority 2018, dated 2021).

How the values were obtained:
pepper = test: Potted experiment: effect of compound of formula I on reducing heavy metal (Cd, Pb) content in vegetables; type: in vivo
Procedure: (§1) Potted experiments were carried out. The test soil was collected from the topsoil (0-20 cm) of farmland in the outskirts of Chengdu, Sichuan Province. The soil type was purple soil, with a total lead content of 1209.21 mg kg^−1 and a total cadmium content of 8.06 mg kg^−1. After the soil samples were collected, the plant residues were removed, air-dried, and passed through a 5 mm siever for later use. Test plants were bok choy and pepper. The sieved soil was filled into a tray, and 80 g of soil was filled in each tray. Before the planting, watering was carried out for 3 days to maintain the field water holding capacity of about 60%. Seeds of uniform size were selected. The surface of the seed was sterilized with ethanol: 30% H2O2 (V:V=1:1) for 3 minutes, and rinsed with sterile deionized water. The sterilized plant seeds were divided into two groups. One group was soaked in a deionized aqueous solution (5 g/L) of the compound of formula I for 4 hours, and was set as the experimental group. The other group was soaked in deionized water for the same time as the control group. The process was repeated 4 times. The seeds after soaking were sowed in a pot. After 1 week after emergence, 3 plants were left in each pot. The above soaking treatment was performed again, and the roots of the experimental group and the control group were soaked with 5 mL of an aqueous solution containing a compound of formula I and deionized water per pot, respectively. Watering the plant daily was necessary to ensure the necessary water for plant growth. Plants were harvested after 40 days of growth. The plants were removed from the pot and washed with deionized water. After harvesting, the plants were cut into roots and above ground parts along the junction of the rhizomes. The plants were put in an oven at 105° C. for 15 minutes, dried at 70° C., and weighed the dry weight of roots and above ground parts. The plant samples were grounded and digested by the nitric acid-perchloric acid method. The contents of heavy metals Pb and Cd in the plants were determined by atomic absorption spectrophotometer.

bok choy = test: as above; type: in vivo
Procedure: as §1

[1] = experimental group (5 g/L compound of formula I) vs deionized water control
[2] = seeds soaked 4 hours in 5 g/L aqueous solution, roots soaked again with 5 mL per pot, Pb/Cd-contaminated soil, harvested after 40 days, atomic absorption

## C/C=C/C(C[C@]1(O)CCNC[C@H](O)CCC2C=CCC(=O)C2C(=O)C/C=C/C=C/C[C@@H](O)C1)OC (stereo partly shown) [compound of formula I]
pepper; [1]
  Cd and Pb concentrations in the above ground parts and below ground parts of peppers, compared with the control group: significantly reduce
pepper; [2]
  Cd Concentration in Vegetables, Above Ground Parts, Pepper: 2.89 ± 0.39 mg/L
  Cd Concentration in Vegetables, Below Ground Parts, Pepper: 4.58 ± 0.11 mg/L
  Pb Concentration in Vegetables, Above Ground Parts, Pepper: 1.32 ± 0.08 mg/L
  Pb Concentration in Vegetables, Below Ground Parts, Pepper: 5.11 ± 0.63 mg/L
Bok choy; [1]
  Cd and Pb concentrations in the above ground parts and below ground parts of bok choy, compared with the control group: significantly reduce
Bok choy; [2]
  Cd Concentration in Vegetables, Above Ground Parts, Bok Choy: 2.08 ± 0.19 mg/L
  Cd Concentration in Vegetables, Below Ground Parts, Bok Choy: 2.01 ± 0.33 mg/L
  Pb Concentration in Vegetables, Above Ground Parts, Bok Choy: 1.51 ± 0.06 mg/L
  Pb Concentration in Vegetables, Below Ground Parts, Bok Choy: 6.71 ± 1.08 mg/L
